# Results taken from patent publication US20230095912A1, “Composition and Methods for Selective Degradation of Engineered Proteins” (Celgene Corporation, priority 2021, published 2023).
# Where two headings read alike, the source gives them in different places.
# Legend:
# ePL-tagged Ikaros = biological target: T1, ePL-tagged Ikaros (Homo sapiens, UniProt Q13422+Q96SW2); test: ePL-tagged substrate degradation in DF15 multiple myeloma cells; format: cell-based; settings: for DC50: Ikaros, DF15 cells, 4 hours
# T1 construct: expressed in transfected cells
# T1 sequence (Q13422 whole entry): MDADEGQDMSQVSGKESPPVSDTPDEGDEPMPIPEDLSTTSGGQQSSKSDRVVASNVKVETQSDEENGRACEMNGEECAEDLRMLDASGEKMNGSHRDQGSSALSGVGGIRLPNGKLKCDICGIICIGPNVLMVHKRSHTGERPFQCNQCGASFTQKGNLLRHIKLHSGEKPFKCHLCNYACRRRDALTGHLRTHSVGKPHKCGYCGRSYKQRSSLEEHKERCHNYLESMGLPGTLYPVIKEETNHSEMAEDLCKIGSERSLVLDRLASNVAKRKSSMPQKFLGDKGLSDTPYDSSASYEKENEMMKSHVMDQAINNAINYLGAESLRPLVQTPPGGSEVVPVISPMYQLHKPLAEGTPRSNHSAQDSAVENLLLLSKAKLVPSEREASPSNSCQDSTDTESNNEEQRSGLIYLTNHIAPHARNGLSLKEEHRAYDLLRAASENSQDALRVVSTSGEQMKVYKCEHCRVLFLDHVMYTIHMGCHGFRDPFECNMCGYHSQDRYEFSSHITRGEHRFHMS
# T1 sequence (Q96SW2 whole entry): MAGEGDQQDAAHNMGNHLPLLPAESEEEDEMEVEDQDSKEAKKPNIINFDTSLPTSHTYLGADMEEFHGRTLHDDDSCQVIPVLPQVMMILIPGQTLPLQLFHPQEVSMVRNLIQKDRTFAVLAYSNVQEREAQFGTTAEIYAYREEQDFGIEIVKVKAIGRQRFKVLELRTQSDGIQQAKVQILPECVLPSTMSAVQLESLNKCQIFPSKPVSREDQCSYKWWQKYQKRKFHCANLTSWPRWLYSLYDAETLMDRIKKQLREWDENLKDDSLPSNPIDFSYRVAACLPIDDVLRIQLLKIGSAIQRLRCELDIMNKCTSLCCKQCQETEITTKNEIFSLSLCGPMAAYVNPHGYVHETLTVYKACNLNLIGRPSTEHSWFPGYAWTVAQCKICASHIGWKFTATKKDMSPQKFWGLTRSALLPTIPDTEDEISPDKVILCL
# T1 sequence (Q16531 whole entry partner): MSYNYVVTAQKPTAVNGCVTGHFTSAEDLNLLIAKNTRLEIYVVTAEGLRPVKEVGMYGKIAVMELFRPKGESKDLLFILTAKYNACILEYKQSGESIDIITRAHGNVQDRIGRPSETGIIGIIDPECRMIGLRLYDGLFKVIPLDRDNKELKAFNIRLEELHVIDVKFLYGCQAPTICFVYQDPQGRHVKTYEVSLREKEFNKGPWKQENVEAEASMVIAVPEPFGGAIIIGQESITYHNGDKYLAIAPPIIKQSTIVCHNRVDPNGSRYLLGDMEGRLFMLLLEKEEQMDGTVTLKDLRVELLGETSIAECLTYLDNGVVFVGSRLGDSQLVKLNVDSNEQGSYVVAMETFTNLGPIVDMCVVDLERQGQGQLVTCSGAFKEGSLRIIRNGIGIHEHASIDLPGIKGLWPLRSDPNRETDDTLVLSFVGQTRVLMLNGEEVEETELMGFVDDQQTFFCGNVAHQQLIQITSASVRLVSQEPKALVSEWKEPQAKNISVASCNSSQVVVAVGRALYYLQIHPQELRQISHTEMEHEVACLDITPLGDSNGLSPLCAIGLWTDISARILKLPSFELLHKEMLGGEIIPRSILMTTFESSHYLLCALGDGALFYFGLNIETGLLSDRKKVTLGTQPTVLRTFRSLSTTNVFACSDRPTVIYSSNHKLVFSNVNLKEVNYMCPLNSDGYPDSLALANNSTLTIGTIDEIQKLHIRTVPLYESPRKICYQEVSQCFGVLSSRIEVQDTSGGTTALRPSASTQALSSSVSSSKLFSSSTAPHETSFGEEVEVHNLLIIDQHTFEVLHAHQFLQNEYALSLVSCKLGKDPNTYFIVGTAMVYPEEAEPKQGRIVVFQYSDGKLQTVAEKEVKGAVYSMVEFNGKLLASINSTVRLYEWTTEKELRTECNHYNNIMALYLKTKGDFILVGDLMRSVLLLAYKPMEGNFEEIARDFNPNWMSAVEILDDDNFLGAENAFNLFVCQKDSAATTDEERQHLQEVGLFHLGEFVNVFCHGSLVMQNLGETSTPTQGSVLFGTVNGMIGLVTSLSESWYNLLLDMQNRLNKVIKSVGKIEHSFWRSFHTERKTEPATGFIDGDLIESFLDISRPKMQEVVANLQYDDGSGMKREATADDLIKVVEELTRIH
# Procedure: (§1) DF15 multiple myeloma cells stably expressing ePL-tagged Aiolos, Ikaros, or GSPT1, and MDS-L cells stably expressing ePL-tagged CK1a were generated via lentiviral infection with pLOC-ePL-Aiolos (or Ikaros, GSPT1, or CK1a). […] Compounds were dispensed by an acoustic dispenser (ATS acoustic transfer system from EDC Biosystems) into a 384-well plate in a 10-point dose response curve using 3-fold dilutions starting at 10 μM and going down to […]. Then, 25 μL of media (RPMI-1640+10% heat inactivated FBS+25 mM Hepes+1 mM Na pyruvate+1× NEAA+1×Pen Strep Glutamine) containing 5000 of DF15 or MSD-L cells was dispensed per well. Assay plates were incubated at 37° C. with 5% CO2 for 4 hours except 20 hours for GSPT1. After incubation, 25 μL of the InCELL Hunter detection reagent working solution (DiscoverX, catalogue no. 96-0002, Fremont, Calif.) was added to each well and incubated at room temperature for 60 min protected from light. After 60 min, luminescence was read on an Envision or PHERAstar luminescence reader.
# (§2) To determine the EC50 value of a compound for the degradation of a given substrate (concentration of compound that achieves half the maximum degradation observed), a four-parameter logistic model (sigmoidal dose—response model) (FIT=(A+{(B−A)/1+[(C/x)D]})) where C is the inflection point (EC50), D is the […], and A and B are the low and high limits of the fit, respectively) was used. All substrate degradation curves were processed and evaluated using ActivityBase (IDBS), a data analysis software package. Ymin is minimum percent protein remaining.
# ePL-tagged GSPT1 = biological target: T2, ePL-tagged GSPT1 (Homo sapiens, UniProt P15170+Q96SW2); test: as above; format: cell-based; settings: for DC50: GSPT1, DF15 cells, 20 hours
# T2 construct: expressed in transfected cells
# Procedure: as §1, §2
# ePL-tagged CK1a = biological target: T3, ePL-tagged CK1a (Homo sapiens, UniProt P48729+Q96SW2); test: ePL-tagged substrate degradation in MDS-L cells; format: cell-based; settings: for DC50: CK1a, MDS-L cells, 4 hours
# T3 construct: expressed in transfected cells
# T3 sequence (P48729 whole entry): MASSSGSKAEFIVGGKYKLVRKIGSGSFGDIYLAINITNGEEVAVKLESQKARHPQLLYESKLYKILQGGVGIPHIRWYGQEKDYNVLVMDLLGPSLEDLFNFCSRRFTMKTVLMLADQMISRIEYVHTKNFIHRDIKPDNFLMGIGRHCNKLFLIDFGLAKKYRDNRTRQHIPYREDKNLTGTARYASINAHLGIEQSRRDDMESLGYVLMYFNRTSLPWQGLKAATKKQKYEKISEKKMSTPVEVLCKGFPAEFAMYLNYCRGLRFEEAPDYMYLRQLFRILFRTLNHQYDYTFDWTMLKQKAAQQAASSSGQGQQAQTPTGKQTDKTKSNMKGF
# T3 sequence (Q96SW2 whole entry): as the sequence (Q96SW2 whole entry) above
# T3 sequence (Q16531 whole entry partner): as the sequence (Q16531 whole entry partner) above
# Procedure: as §1, §2
# IKZF1 ZNF2 Q1F = test: In vitro ubiquitination screen of Ikaros MBP-ZNF2 Q1 mutants; format: biochemical, human; settings: western blot
# From the text: Structural studies reveal that position 1 of the G-motif is in close proximity to the compound when substrates are bound to cereblon/compound complexes (not shown). Alignment of the G-motif degron sequences of the IKZF family (FIG. 8) and predicted degrons within other C2H2 zinc fingers (FIG. 9) reveal a diverse set of amino acids at this position. Therefore, to identify additional compound:degron pairs, mutations were made in the Q1 position of IKZF1 ZNF2, and potential compounds were screened for activity against these mutants. Plasmids were built containing Ikaros MBP-ZNF2 (aa 141-196) with alternate amino acids at the Q1 position, and an in vitro ubiquitination screen was conducted using various compounds including Compound B (FIG. 10A).
# Helios = biological target: T4, Helios (Homo sapiens, UniProt Q96SW2+Q9UKS7); test: Helios HiBit degradation in Jurkat cells; format: cell-based; settings: for DC50: Helios, Jurkat/Helios/HiBit cells, 18 hr, read-out: EC50 (the source's name)
# T4 construct: endogenous in cells; host or cells: Jurkat/Helios/HiBit cells (CRISPR/Cas9 knock-in)
# Procedure: For Helios, a stable Jurkat cell line was engineered using CRISPR/Cas9 to insert an in-frame HiBit tag into the carboxy-terminal reading frame of the IKZF2 gene. Test compounds were transferred to 1536 well plates using an acoustic dispenser, and Jurkat/Helios/HiBit cells in DMEM/10% FCS were plated at 10,000 cells/well in a final volume of 5 ul. Cells were incubated at 37C, 95% RH for 18 hr. Luciferase activity was measured by adding 2 ul/well of Nano-Glo reagent (Promega), incubating at RT for 30 min, and reading luminescence on a microtiter plate reader.
# (§3) All substrate degradation curves were processed and evaluated using ActivityBase (IDBS), a data analysis software package. Ymin is minimum percent protein remaining.
# ePL-tagged Aiolos = biological target: T5, ePL-tagged Aiolos (Homo sapiens, UniProt Q96SW2+Q9UKT9); test: ePL-tagged substrate degradation in DF15 multiple myeloma cells; format: cell-based; settings: for DC50: Aiolos, DF15 cells, 4 hours, read-out: EC50 (the source's name)
# T5 construct: expressed in transfected cells
# Procedure: as §1, §3
# [1] = tested on: IKZF1 ZNF2_3 Q1F tagged CD19 CAR; test: Jurkat reporter assay (tdTomato), signaling of Q1F-tagged CAR after degradation; format: cell-based, human; settings: 1 mM pre-treatment 12 hours, co-culture with CD19-expressing K562 8 hours
# Procedure: A lentiviral vector encoding ZNF2_3 Q1F or Q1F/G6N tagged CD19 CAR was transduced into the reporter cell line. […] Levels of tdTomato in the form of the overall percent of positive cells (FIG. 12A), as well as mean fluorescence intensity (MFI, FIG. 12B) were assessed by flow cytometry. Degradation of CARs containing the ZNF2_3 Q1F degron decreased signaling by around 30% using 1 mM Compound C and by around 75% using Compound B; this relative difference correlates with the depth of degradation seen for each. Further, the reduction in activity depends upon having an intact G-motif, as the G6N mutation prevents inhibition.
# [2] = biological target: T6, CD19 CARs tagged with IKZF1 ZNF2_ZNF3 Q1F (Homo sapiens, UniProt Q13422, Q146F); test: Small-molecule screen: Q1F degron-tagged CD19 CAR levels in Jurkat cells, flow cytometry; format: cell-based; settings: for Ymin (%): minimum percent protein remaining
# T6 construct: EC50 (Q1F degron); other: Jurkat cells, 18 hours, CAR levels normalized to no drug; Ymin (Q1F degron); Ymin (%); minimum percent protein remaining; Nluc reporter
# T6 sequence (Q13422 whole entry Q146F): as the sequence (Q13422 whole entry) above, with Q146F counted along it
# Procedure: A set of potential degron-targeting compounds was screened against the Q1F degron, resulting in a set of potent degron/small-molecule pairs. Lentiviral vectors containing CD19 CARs tagged with IKZF1 ZNF2_ZNF3 Q1F Nluc were transduced into Jurkat cells. The CD19 CAR was similar to the CD19 CAR in Example 2, but comprising the ZNF2_ZNF3 Q1F degron (SEQ ID NO: 19). Transduced cells were treated with a titration of each small molecule or no drug and then incubated at 37° C. for 18 hours. Cells were washed and stained with appropriate staining reagent to measure CAR levels. The cells were incubated at 4° C. in the staining reagents for 20 mins and then washed 3 times before being read on the flow cytometer. CAR levels were normalized to cells that had not been treated with drug. EC50 and Ymin values were calculated using the resulting titration curve. This identified small molecules that potently degraded the Q1F degron-tagged CARs (Table 1).
# [3] = tested on: ZNF2_3 Q1F tagged CD19 CAR; test: Raji xenograft model, degron-tagged CAR T down-regulation in NSG mice; format: in vivo; settings: 6.85 mg/kg BID orally on days 0 and 1, Raji tumor
# Procedure: (§4) The ability to degrade ZNF2_3 Q1F tagged CAR in vivo was evaluated. A lentiviral vector encoding ZNF2_3 Q1F tagged CD19 CAR was transduced into activated primary T cells. Transduced cells were expanded for 10 days in media supplemented with IL2, IL7 and IL15, then frozen.
# To examine the down-regulation of degron-tagged CAR in vivo in a xenograft cancer model and the impact on CAR T function, female NSG™ mice were injected with 5×10^5 of Raji tumor cells stably expressing renilla luciferase. Six days later CAR T cells were thawed, rested for 24 hours and adoptively transferred into the mice at a dose of 2×10^6 cells per animal. Mice were dosed orally with vehicle or 6.85 mg/kg Compound D BID on days 0 and 1 (FIG. 19A). Blood was drawn and tumor fluorescence measured at D1, D3, and D10 (FIG. 19A), and the proportion of CAR+T cells, as determined by staining with anti-scFv and anti-CD3 antibodies, was evaluated by flow.
# [4] = tested on: CD19 CARs tagged with IKZF1 ZNF2_ZNF3 Q1F; test: Small-molecule screen: Q1F degron-tagged CD19 CAR levels in Jurkat cells, flow cytometry; format: cell-based, human; settings: versus Helios, Aiolos, Ikaros, GSPT1, CK1a
# [5] = tested on: ZNF2_3 Q1F tagged CD19 CAR; test: In vivo degradation of degron-tagged CAR in non-tumor bearing NSG mice
# Procedure: as §4
# To determine the ability to degrade degron-tagged CAR in vivo in the absence of tumor, CAR T cells were thawed, rested for 24 hours and adoptively transferred into non-tumor bearing female NSG™ immunodeficient mice at a dose of 2×10^6 cells per animal. After 24 hours, mice were dosed orally with vehicle, 0.85 or 8.5 mg/kg Compound D (FIG. 18B). Blood was drawn 8, 24, 48 and 72 hours later (FIG. 18A), and the proportion of CAR+ T cells, as determined by staining with anti-scFv and anti-CD3 antibodies, was evaluated by flow.
# tagged TOX = settings: 1 μM, 16 hours, knock-in Jurkat cells
# From the text: (§5) The ability to knock degron tags in-frame into genomic loci to allow for compound-mediated modulation of endogenous protein levels was explored. Adeno-associated viral vectors were designed to deliver IKZF1 ZNF2_3-V5 tag-T2A-muThy1.1 tags to be knocked in-frame into the AURA (FIG. […]) or TOX locus (FIG. 20C-20D) in Jurkat cells in both the N- and C-terminal orientations. Jurkats were then electroporated with Cas9/guide RNA ribonucleoproteins. […] Cells were then pelleted, lysed, run on a denaturing protein gel, transferred to a membrane, probed with antibody and visualized with film.
# Aurora A = settings: 1 μM, 16 hours, knock-in Jurkat cells
# From the text: as §5
# [6] = tested on: WT IKZF1 ZNF2_3-tagged CARs; test: Erk phosphorylation (pErk) western blot after CAR degradation in Jurkat cells; format: cell-based, human; settings: 1 mM pretreatment 12 hours, co-culture with CD19-expressing K562 30 minutes
# Procedure: Abrogation of signaling with CAR degradation was assessed by measuring activation of the downstream MAPK signaling pathway. Jurkat cells were transduced with untagged, WT degron-tagged, or G6N degron-tagged CAR as described above.
# [7] = biological target: CAR tagged with WT ZNF2_3 (Homo sapiens, UniProt Q13422+Q96SW2); settings: higher Compound A concentrations
# Procedure: The IKZF1-ZNF2 degron was further modified to promote improved CAR degradation. Untagged CAR and CAR tagged with the original IKZF1-ZNF2 degrons were tested alongside alternate orientations and combinations of IKZF1 ZNF1, ZNF2, and ZNF3 (FIG. 5A). Each CAR included a CD28 transmembrane domain, a 4-1BB costimulatory domain, and a CD3 (CD3z) signaling domain. The IKZF1 degrons were fused to the C-terminus. […] A lentiviral vector encoding untagged CD19 CAR or CAR tagged with various configurations of IKZF1-ZNFs was transduced into the Jurkat cell line. Transduced cells were first co-cultured with a CD19-expressing K562 target cell line at 37° C. for 7.5 hours, and normalized levels of tdTomato reporter were assessed by flow cytometry.
# [8] = biological target: IKZF1 ZNF2-tagged CD19 CAR (Homo sapiens, UniProt Q13422+Q96SW2); settings: jurkat, 1440 min
# [9] = biological target: IKZF1 ZNF2_3 tagged CD19 CAR (Homo sapiens, UniProt Q13422+Q96SW2); settings: 100 nM pre-treatment 48 hours, co-culture with CD19-expressing K562 8 hours
# Procedure: Function of IKZF1 ZNF2 tagged CD19 CAR T cells (FIG. 2, ZNF2 amino acid sequence of SEQ ID NO: 15) was evaluated in a reporter assay, in which Jurkat cells have been engineered to express tdTomato when the Nur77 gene, associated with CAR and TCR activation, is actively transcribed (FIG. 3). Lentiviral vectors encoding ZNF-tagged CD19 CAR, untagged CD19 CAR, or an untagged BCMA CAR negative control were transduced into the Jurkat reporter cell line. Transduced cells were then co-cultured with a CD19-expressing K562 target cell line at 37° C. Levels of tdTomato, both in the form of mean fluorescence intensity (MFI) and the overall percent of positive cells, were assessed by flow cytometry every 2 hours for 12 hours.
# A lentiviral vector encoding ZNF2_3 tagged or untagged CD19 CAR (see Example 2) was transduced into the reporter cell line. […] Levels of tdTomato in the form of mean fluorescence intensity (MFI) (FIG. 6B) and the overall percent of positive cells, as well as normalized CAR levels (FIG. 6C), were assessed by flow cytometry (FIG. 6A).
# [10] = tested on: CAR tagged with ZNF2_3 containing a G6N mutation; test: Compound A titration on Jurkat cells with CAR tagged with ZNF2_3 G6N mutant degron; format: cell-based, human; settings: any dose
# From the text: The IKZF1 degrons were fused to the C-terminus. See SEQ ID NOs: 53-57. […] This configuration was therefore selected for further testing.
# [11] = read-out: EC50 (the source's name)
# [12] = Degron Q1F (from Table 1), read-out: EC50 (the source's name)
# [13] = Jurkat assay described in Example 5, read-out: EC50 for the Q1F degron
# [14] = Jurkat cells, 18 hours, CAR levels normalized to no drug
# [15] = Jurkat cells, 18 hours, CAR levels normalized to no drug, read-out: EC50 (Q1F degron)
Compound,Ymin (%) (ePL-tagged Ikaros),DC50 (ePL-tagged Ikaros; [11]) [nM],Ymin (%) (ePL-tagged GSPT1),DC50 (ePL-tagged GSPT1; [11]) [nM],Ymin (%) (ePL-tagged CK1a),DC50 (ePL-tagged CK1a; [11]) [nM],Ymin (%) (Helios),degradation of Helios (in words) (Helios),DC50 (Helios) [nM],Ymin (%) (ePL-tagged Aiolos),DC50 (ePL-tagged Aiolos) [nM],Ymin (%) ([2]; Degron Q1F (from Table 1)),"DC50 [2, 12] [nM]","DC50 [2, 13] [nM]","Ymin (Q1F degron) [2, 14] [%]","DC50 [2, 15] [nM]",other results
"O=C1CCC(N2Cc3cc(C(=O)N4Cc5cccnc5C4)ccc3C2=O)C(=O)N1 (stereo not drawn) [Compound B, 3-(5-(6,7-dihydro-5H-pyrrolo[3,4-b]pyridine-6-carbonyl)-1-oxoisoindolin-2-yl)piperidine-2,6-dione]",91,> 10000,72,54,82,> 10000,65,some degradation activity against Helios,> 10000,93,> 10000,1.7,4.8,< 5,1.7,4.8,degradation of GSPT1 (in words) (ePL-tagged GSPT1): some degradation activity against GSPT1; ubiquitination of IKZF1 ZNF2 Q1F (IKZF1 ZNF2 Q1F): heavily ubiquitinated; decrease of signaling (tdTomato reporter) [1]: around 75%
"O=C1CCC(N2Cc3cc(C4CCN(Cc5ccc6ncsc6c5)CC4)ccc3C2=O)C(=O)N1 (stereo not drawn) [Compound D, 3-[5-[1-(1,3-benzothiazol-6-ylmethyl)-4-piperidyl]-1-oxo-isoindolin-2-yl]piperidine-2,6-dione]",93,> 10000,96,> 10000,81,> 10000,24,some degradation of Helios,460,87,> 10000,4.2,0.7,< 1,4.2,0.7,"expansion and cytolytic function of degron-tagged CAR T cells [3]: decreased expansion and cytolytic function; selectivity for the Q1F degron (in words) [4]: selective for the Q1F degron; CD3+ CAR+ cells remaining ([5]; 0.85 or 8.5 mg/kg orally (both doses), blood at 8 hours): < 5%; CAR level in vivo ([5]; 0.85 or 8.5 mg/kg orally, 24 hours): remained significantly degraded; CAR expression in vivo ([5]; 48 hours after dosing): substantially restored"
O=C1CCC(N2Cc3c(OCc4ccc(CN5CCN(c6ccc(F)cc6F)CC5)cc4)cccc3C2=O)C(=O)N1 (stereo not drawn) [Compound A],,,,,,,,,,,,,,,,,tagged TOX levels (western blot) (tagged TOX): decreased; Aurora A levels (western blot) (Aurora A): decreased; Erk phosphorylation (pErk) [6]: attenuated; CAR degradation (WT ZNF2_3 degron) [7]: deep CAR degradation; DC50 (ePL-tagged Ikaros; read-out: EC50): 22 nM; DC50 (ePL-tagged GSPT1; read-out: EC50): 39 nM; CAR degradation [8]: ~55%; degradation of CK1a (in words) (ePL-tagged CK1a): degraded CK1a to a significant extent; DC50 (ePL-tagged CK1a; read-out: EC50): 190 nM; inhibition of CAR activity [9]: strongly inhibit CAR activity; response of G6N mutant tagged CAR [10]: failed to respond
